Laboratory results as given in patent publication US12378571B2, “Use of glyphosate for disease suppression and yield enhancement in soybean” (Monsanto Technology LLC, priority 2009, dated 2025).

Columns and labels:
[1] = system: Brown Stem Rot of soybean; test: Field studies, Brown Stem Rot: Roundup WeatherMAX, picoxystrobin, tank mix (Rup 1X = 0.84 kg ae/ha; picoxystrobin 0.125 kg ai/ha); type: in vivo; details: for BSR Foliar Symptoms (0-11 HB scale): picoxystrobin 1X at R2; for Calculated Values (% of control) Foliar Symptoms: treatment 9 (picoxystrobin 1X at R2)
Diaporthe phaseolorum = test: Greenhouse studies, Stem Canker of soybean, glyphosate after inoculation; type: in vivo; details: 0.84-2.52 kg ae/ha following inoculation
Protocol: Stem Canker of soybean (STC) is caused by Diaporthe phaseolorum. Greenhouse studies were performed to determine the efficacy of timing of glyphosate application (e.g. 0.84-2.52 kg ae/ha) following inoculation with the pathogen.

[2] = Mobilization of glyphosate in planta after foliar application; type: in vivo
Description: Mobilization of glyphosate in planta was studied to determine the potential to impact on activity against plant diseases. About 1 day after foliar application of glyphosate about 70% of the applied glyphosate may be found on the leaf surface, where it may directly contact fungal spores or infective structures, inhibiting their growth, and killing them. About 21% of the glyphosate was found localized within the foliage where it can act to inhibit infection locally. About 9% of the applied glyphosate was transported out of the treated leaf and detected systemically (e.g. in stems and roots) at the time of testing (e.g. Feng et al. 2005). The transported fraction of applied glyphosate increases to about 40% over time, further increasing systemic fungicidal activity.

[3] = system: Phakopsora pachyrhizi EPSPS expressed in Escherichia coli strain lacking native EPSPS; test: Zone of growth inhibition, filter paper disk on plate seeded with E. coli expressing fungal EPSPS; type: cell-based
Protocol: Glyphosate Mode of Action Against Plant Pathogenic Fungi A gene encoding EPSPS was cloned from a representative phytopathogenic fungus, in this case, from Phakopsora pachyrhizi, the causal agent of Asian Soybean Rust (“ASR”), and expressed in an Escherichia coli strain lacking the native bacterial E. coli EPSPS. Thus, EPSPS activity in the recombinant bacterial strain was due to the presence of the fungal EPSPS. Glyphosate was added to a filter paper disk and placed on a culture plate seeded with the recombinant E. coli cells, allowing for detection of a zone of growth inhibition of bacterial cells.

[4] = system: Brown Stem Rot (Phialaphora gregata); test: Field trials, Brown Stem Rot, glyphosate (Example 4, Table 1); type: in vivo, soybean
Protocol: (§1) Greenhouse studies were performed to determine the effect of glyphosate timing and rate of application in preventing or suppressing the development of BSR in soybean plants. […] Field trials were also performed. Asgrow cv. 2107 soybean plants were planted and maintained weed free with pre-emergence herbicides at recommended rates, followed by hand weeding as necessary.

[5] = system: Brown Stem Rot (Phialaphora gregata); test: Greenhouse studies, Brown Stem Rot, glyphosate timing and rate; type: in vivo, soybean; details: application 4 days before infection, about 0.84-2.5 kg ae/ha
Protocol: as §1

[6] = about 1 day after foliar application

CO/C=C(/C(=O)OC)c1ccccc1COc1cccc(C(F)(F)F)n1 [picoxystrobin]
BSR Foliar Symptoms (0-11 HB scale) ([1]; 7-Sep): 3.6 0-11 HB scale | Calculated Values (% of control) Foliar Symptoms ([1]; 7-Sep): 72.0 % of control | BSR Foliar Symptoms (0-11 HB scale) ([1]; 14-Sep): 6.8 0-11 HB scale | Calculated Values (% of control) Foliar Symptoms ([1]; 14-Sep): 113.3 % of control | BSR Foliar Symptoms (0-11 HB scale) ([1]; 31-Aug): 3.0 0-11 HB scale | Calculated Values (% of control) Foliar Symptoms ([1]; 31-Aug): 93.8 % of control

O=C(O)CNCP(=O)(O)O [glyphosate, N-phosphonomethylglycine]
prophylaxis of Soybean Stem Canker (Diaporthe phaseolorum): Prophylactic results, even 7 or more days post-inoculation, were seen | applied glyphosate found on the leaf surface [2, 6]: about 70% | glyphosate localized within the foliage [2, 6]: About 21% | applied glyphosate transported out of the treated leaf and detected systemically (stems and roots) ([2]; at the time of testing, about 1 day after foliar application): About 9% | transported fraction of applied glyphosate ([2]; over time): about 40% | zone of inhibition ([3]; 5 mg of glyphosate on filter paper disk): about 24 mm | zone of growth inhibition ([3]; 20 mg of glyphosate on filter paper disk): about 38 mm | suppression of BSR, as measured by foliar symptom severity ([4]; glyphosate applied at V3- R2 growth stages): suppression of BSR (reduced stem rot severity) | yield relative to untreated controls ([4]; treated soybean test plots): Increased yield | foliar incidence of BSR [5]: reduced the level of foliar incidence of the disease
